Experimental findings from US10738056B2 (Aduro BioTech, Inc., priority 2017, dated 2020) are described below.

Each structure is given as a SMILES string.

Sequence of Human cGAS amino acids 155-522 (Q8N884 157-522): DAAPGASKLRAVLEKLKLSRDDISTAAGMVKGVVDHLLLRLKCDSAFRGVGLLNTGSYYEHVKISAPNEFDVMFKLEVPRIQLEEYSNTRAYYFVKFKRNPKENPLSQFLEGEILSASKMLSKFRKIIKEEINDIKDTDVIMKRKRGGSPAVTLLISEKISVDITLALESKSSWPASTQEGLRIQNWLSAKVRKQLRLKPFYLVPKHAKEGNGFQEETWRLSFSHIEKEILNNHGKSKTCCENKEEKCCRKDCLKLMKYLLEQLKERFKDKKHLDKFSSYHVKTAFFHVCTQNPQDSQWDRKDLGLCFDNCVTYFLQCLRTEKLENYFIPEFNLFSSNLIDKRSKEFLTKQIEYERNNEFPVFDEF

This assay addresses Human cGAS amino acids 155-522 (Homo sapiens (Human), UniProt Q8N884). Nature of the assay: cGAS biochemical activity assay (ATP remaining, Kinase-Glo Max luminescence). The note with it: human cGAS 155-522, ATP remaining (Kinase-Glo Max); read-out: cGAS IC50. (Kinase-Glo measures the ATP left after a reaction by luminescence.)
What is called IC50 is the midpoint of a concentration-inhibition curve. Turning to `COCc1[nH]c2c(-c3ccccc3)c(C(=O)O)nn2c(=O)c1-c1nc2c(OC)cccc2o1` [Compound C1090, 6-(4-methoxybenzo[d]oxazol-2-yl)-5-(methoxymethyl)-7-oxo-3-phenyl-4,7-dihydropyrazolo[1,5-a]pyrimidine-2-carboxylic acid], the IC50 was in the range of 20 to 250 µM. In the case of `Cc1[nH]c2c(-c3ccccc3)c(C(F)(F)F)nn2c(=O)c1-c1nnc(N2CCCC(N)C2)o1` (stereo not shown) [Compound D1084, 6-(5-(3-aminopiperidin-1-yl)-1,3,4-oxadiazol-2-yl)-5-methyl-3-phenyl-2-(trifluoromethyl)pyrazolo[1,5-a]pyrimidin-7(4H)-one] it was less than 20 µM; in that of `COc1cccc2oc(-c3c(C)[nH]c4c(-c5ccccc5)c(OCC(=O)O)nn4c3=O)nc12` [Compound C1072, 2-((6-(4-methoxybenzo[d]oxazol-2-yl)-5-methyl-7-oxo-3-phenyl-4,7-dihydropyrazolo[1,5-a]pyrimidin-2-yl)oxy)acetic acid], 20 to 250 µM.

On to `Cc1[nH]c2c(-c3ccccc3)c(C(F)(F)F)nn2c(=O)c1N1Cc2ccc(N)cc2C1=O` [Compound C1217, 6-(6-amino-1-oxoisoindolin-2-yl)-5-methyl-3-phenyl-2-(trifluoromethyl)pyrazolo[1,5-a]pyrimidin-7(4H)-one], for which the IC50 was in the range of 20 to 250 µM. With `Cc1[nH]c2c(-c3ccccc3)c(C(F)(F)F)nn2c(=O)c1-c1nnc(-c2cccnc2)o1` [Compound D1063, 5-methyl-3-phenyl-6-(5-(pyridin-3-yl)-1,3,4-oxadiazol-2-yl)-2-(trifluoromethyl)pyrazolo[1,5-a]pyrimidin-7(4H)-one], the IC50 lay in the range of 20 to 250 µM. For the molecule `Cc1[nH]c2c(-c3ccccc3)c(C(F)(F)F)nn2c(=O)c1C1=N[C@H](C(=O)O)CO1` [Compound C1192, (S)-2-(5-methyl-7-oxo-3-phenyl-2-(trifluoromethyl)-4,7-dihydropyrazolo[1,5-a]pyrimidin-6-yl)-4,5-dihydrooxazole-4-carboxylic acid], the IC50 is less than 20 µM. With `Cc1cccc(-c2c(C(F)(F)F)nn3c(=O)c(-c4nc5c(o4)CCCC5)c(C)[nH]c23)c1` [Compound C1034, 5-methyl-6-(4,5,6,7-tetrahydrobenzo[d]oxazol-2-yl)-3-(m-tolyl)-2-(trifluoromethyl)pyrazolo[1,5-a]pyrimidin-7(4H)-one], the IC50 was greater than 250 µM.

In the case of `Cc1[nH]c2c(-c3ccccc3)c(C#N)nn2c(=O)c1-c1ncco1` [Compound C1270, 5-methyl-6-(oxazol-2-yl)-7-oxo-3-phenyl-4,7-dihydropyrazolo[1,5-a]pyrimidine-2-carbonitrile], the IC50 is less than 20 µM. As to `CO[C@H]1CCCC1c1nnc(-c2c(C)[nH]c3c(-c4ccccc4)c(C(F)(F)F)nn3c2=O)o1` (stereo partly shown) [D1049 Iso-1], the IC50 was less than 20 µM. Regarding `COC(=O)Nc1ccccc1NC(=O)c1c(C)[nH]c2c(-c3ccccc3)c(C(F)(F)F)nn2c1=O` [Compound A1038, methyl (2-(5-methyl-7-oxo-3-phenyl-2-(trifluoromethyl)-4,7-dihydropyrazolo[1,5-a]pyrimidine-6-carboxamido)phenyl)carbamate], the IC50 lay within 20 to 250 µM. Take `Cc1[nH]c2c(-c3ccccc3)c(C(F)(F)F)nn2c(=O)c1C(=O)N[C@@H]1CCCC[C@H]1N` [Compound A1014, N-((1R,2R)-2-aminocyclohexyl)-5-methyl-7-oxo-3-phenyl-2-(trifluoromethyl)-4,7-dihydropyrazolo[1,5-a]pyrimidine-6-carboxamide]: the IC50 was in the range of 20 to 250 µM.

As for `Cc1[nH]c2c(-c3ccccc3)c(C(F)(F)F)nn2c(=O)c1C(=O)Nc1ccccc1OC(F)(F)F` [Compound A1049, 5-methyl-7-oxo-3-phenyl-N-(2-(trifluoromethoxy)phenyl)-2-(trifluoromethyl)-4,7-dihydropyrazolo[1,5-a]pyrimidine-6-carboxamide], the IC50 lay in the range of 20 to 250 µM. Consider `COc1cccc2oc(-c3c(C)[nH]c4c(-c5ccccc5)nnn4c3=O)nc12` [Compound E1001, 6-(4-methoxybenzo[d]oxazol-2-yl)-5-methyl-3-phenyl-[1,2,3]triazolo[1,5-a]pyrimidin-7(4H)-one], for which the IC50 was less than 20 µM.

For the molecule `Cc1[nH]c2c(-c3ccccc3)c(C(F)(F)F)nn2c(=O)c1-c1nnc(C2CCCNC2)o1` (stereo not shown) [Compound D1036, 5-methyl-3-phenyl-6-(5-(piperidin-3-yl)-1,3,4-oxadiazol-2-yl)-2-(trifluoromethyl)pyrazolo[1,5-a]pyrimidin-7(4H)-one], the IC50 fell in the range of 20 to 250 µM. For the molecule `CC(=O)Nc1cccc(NC(=O)c2c(C)[nH]c3c(-c4ccccc4)c(C(F)(F)F)nn3c2=O)c1` [Compound A1039, N-(3-acetamidophenyl)-5-methyl-7-oxo-3-phenyl-2-(trifluoromethyl)-4,7-dihydropyrazolo[1,5-a]pyrimidine-6-carboxamide], the IC50 fell in the range of 20 to 250 µM. To `COc1cc(F)cc(NC(=O)c2c(C)[nH]c3c(-c4ccccc4)c(C(F)(F)F)nn3c2=O)c1` [Compound A1133, N-(3-fluoro-5-methoxyphenyl)-5-methyl-7-oxo-3-phenyl-2-(trifluoromethyl)-4,7-dihydropyrazolo[1,5-a]pyrimidine-6-carboxamide] belongs less than 20 µM; to `Cc1[nH]c2c(-c3ccccc3)c(C(F)(F)F)nn2c(=O)c1-c1nnc(N2CCOCC2)o1` [Compound D1009, 5-methyl-6-(5-morpholino-1,3,4-oxadiazol-2-yl)-3-phenyl-2-(trifluoromethyl)pyrazolo[1,5-a]pyrimidin-7(4H)-one], 20 to 250 µM. Regarding `Cc1[nH]c2c(-c3ccccc3)c(C(F)(F)F)nn2c(=O)c1Cc1nnc(C2CCCC2)o1` [Compound D1034, 6-((5-cyclopentyl-1,3,4-oxadiazol-2-yl)methyl)-5-methyl-3-phenyl-2-(trifluoromethyl)pyrazolo[1,5-a]pyrimidin-7(4H)-one], the IC50 lay in the range of 20 to 250 µM. Turning to `Cc1[nH]c2c(-c3ccccc3)c(C(F)(F)F)nn2c(=O)c1-c1nc2cc(Cl)ccc2o1` [Compound C1028, 6-(5-chlorobenzo[d]oxazol-2-yl)-5-methyl-3-phenyl-2-(trifluoromethyl)pyrazolo[1,5-a]pyrimidin-7(4H)-one], the IC50 is greater than 250 µM.

`Cc1[nH]c2c(-c3ccccc3)c(C(F)(F)F)nn2c(=O)c1C(=O)Nc1[nH]nc(C(F)(F)F)c1C1CCCC1` [Compound A1061, N-(4-cyclopentyl-3-(trifluoromethyl)-1H-pyrazol-5-yl)-5-methyl-7-oxo-3-phenyl-2-(trifluoromethyl)-4,7-dihydropyrazolo[1,5-a]pyrimidine-6-carboxamide]: the IC50 fell in the range of 20 to 250 µM. Regarding `Cc1[nH]c2c(-c3ccccc3)c(C(F)(F)F)nn2c(=O)c1-c1nnc(C2CCNCC2)o1` [Compound D1052, 5-methyl-3-phenyl-6-(5-(piperidin-4-yl)-1,3,4-oxadiazol-2-yl)-2-(trifluoromethyl)pyrazolo[1,5-a]pyrimidin-7(4H)-one], the IC50 lay within 20 to 250 µM. As to `Cc1[nH]c2c(-c3ccccc3)c(C(F)(F)F)nn2c(=O)c1C(=O)Nc1nn(C)cc1C#N` [Compound A1090, N-(4-cyano-1-methyl-1H-pyrazol-3-yl)-5-methyl-7-oxo-3-phenyl-2-(trifluoromethyl)-4,7-dihydropyrazolo[1,5-a]pyrimidine-6-carboxamide], the IC50 was less than 20 µM.

Turning to `Cc1[nH]c2c(-c3ccccc3)c(C(F)(F)F)nn2c(=O)c1-c1nc2ccccc2n1CC1CCCC1` [Compound C1235, 6-(1-(cyclopentylmethyl)-1H-benzo[d]imidazol-2-yl)-5-methyl-3-phenyl-2-(trifluoromethyl)pyrazolo[1,5-a]pyrimidin-7(4H)-one], the IC50 was in the range of 20 to 250 µM. As for `Cc1[nH]c2c(-c3ccccc3)c(C(F)(F)F)nn2c(=O)c1C(=O)NC1CCCC1` [Compound A1008, N-cyclopentyl-5-methyl-7-oxo-3-phenyl-2-(trifluoromethyl)-4,7-dihydropyrazolo[1,5-a]pyrimidine-6-carboxamide], the IC50 fell in the range of 20 to 250 µM. Turning to `COc1cncc(NC(=O)c2c(C)[nH]c3c(-c4ccccc4)c(C(F)(F)F)nn3c2=O)n1` [Compound A1098, N-(6-methoxypyrazin-2-yl)-5-methyl-7-oxo-3-phenyl-2-(trifluoromethyl)-4,7-dihydropyrazolo[1,5-a]pyrimidine-6-carboxamide], the IC50 lay in the range of 20 to 250 µM. `CN(Cc1ccccc1)C(=O)c1c[nH]c2c(-c3ccccc3)c(C(F)(F)F)nn2c1=O` [Compound A1013, N-benzyl-N-methyl-7-oxo-3-phenyl-2-(trifluoromethyl)-4,7-dihydropyrazolo[1,5-a]pyrimidine-6-carboxamide]: the IC50 is greater than 250 µM. With `COCCN(C)C(=O)c1[nH]c2c(-c3ccccc3)c(C(F)(F)F)nn2c(=O)c1-c1nc2c(OC)cccc2o1` [Compound C1179, 6-(4-methoxybenzo[d]oxazol-2-yl)-N-(2-methoxyethyl)-N-methyl-7-oxo-3-phenyl-2-(trifluoromethyl)-4,7-dihydropyrazolo[1,5-a]pyrimidine-5-carboxamide], the IC50 fell in the range of 20 to 250 µM.

In the case of `Cc1[nH]c2c(-c3ccccc3)c(C(F)(F)F)nn2c(=O)c1CC(=O)Nc1ccncc1` [Compound B1004, 2-(5-methyl-7-oxo-3-phenyl-2-(trifluoromethyl)-4,7-dihydropyrazolo[1,5-a]pyrimidin-6-yl)-N-(pyridin-4-yl)acetamide], the half-inhibitory concentration (IC50) fell in the range of 20 to 250 µM. In the case of `COc1ccc(NC(=O)Cc2c(C)[nH]c3c(-c4ccccc4)c(C(F)(F)F)nn3c2=O)cc1` [Compound B1006, N-(4-methoxyphenyl)-2-(5-methyl-7-oxo-3-phenyl-2-(trifluoromethyl)-4,7-dihydropyrazolo[1,5-a]pyrimidin-6-yl)acetamide], the IC50 was 20 to 250 µM. Turning to `COc1cccc(N(C)C(=O)c2c(C)[nH]c3c(-c4ccccc4)c(C(F)(F)F)nn3c2=O)c1` [Compound A1114, N-(3-methoxyphenyl)-N,5-dimethyl-7-oxo-3-phenyl-2-(trifluoromethyl)-4,7-dihydropyrazolo[1,5-a]pyrimidine-6-carboxamide], the half-inhibitory concentration (IC50) was greater than 250 µM.

With `COCCOc1nn2c(=O)c(-c3nc4c(OC)cccc4o3)c(C)[nH]c2c1-c1ccccc1` [Compound C1083, 6-(4-methoxybenzo[d]oxazol-2-yl)-2-(2-methoxyethoxy)-5-methyl-3-phenylpyrazolo[1,5-a]pyrimidin-7(4H)-one], the IC50 is greater than 250 µM.
